Assay results from patent US9340538B2, “Dihydropyrimidine compounds and their application in pharmaceuticals” (SUNSHINE LAKE PHARMA CO., LTD., priority 2013, dated 2016).
Read-outs that look alike come from different tables or passages of the source.

Columns and labels:
[1] = system: HBV; experiment: In-vitro anti-HBV activity in stable HBV-producing cell line (HepG2.2.15), HBV DNA in culture fluid by qPCR; type: cell-based; details: Hepatitis B virus, 168 h; 500 nmol final concentration, HepG2.2.15 cells, HBV DNA in culture media on day 7 post seeding, vs DMSO control; read-out: HBV (% Inh.) (500 nmol)
Procedure: In-Vitro Anti-HBV Activity of Compounds in Stable HBV-Producing Cell Line (HepG2.2.15)
HBV DNA contents in cell culture fluid were detected by the qPCR-based assay and percents of HBV inhibition by compounds (% Inh) were calculated. Specific procedures are as follows:
HepG2.2.15 cells were seeded into each well of 96-well plates, 40,000 cells per well. Cells were treated with cell culture medium containing compounds 24 hours after cell seeding. Each compound to detected percent inhibition was in duplicate and the final concentration of each compound was 500 nmol in each well. The compound-containing mediums were refreshed on day 4 post cell seeding. Culture media were collected from the HepG2.2.15 plates on day 7 post cell seeding followed by HBV DNA extraction.
HBV DNA extraction: using QIAamp 96 DNA Blood Kit (QIAGEN 51161).
PCR for quantification: PCR mix was prepared according to PCR system; PCR mix was dispensed to 384-well optical reaction plates (special for quantification); The standard diluted proportionally was added; The sample was added; The plates were sealed with optical adhesive film; PCR system was performed according to programs.
Percent of HBV inhibition of DNA replication by compound was calculated using the following equation: % Inh.=[1-HBV DNA quantity of sample/HBV DNA quantity of DMSO control]*100. II. Assay Results

[2] = Test compounds' PK assay in ICR mice; type: in vivo; details: mouse, plasma; for AUC(0-t): AUC in 0-24 hours; for AUC(0-inf): AUC in 0 hour to infinite time; for Vd: read-out: Vss; for bioavailability: read-out: F (absolute bioavailability)
Procedure: The test compounds were poured into ICR mice stomach through mouth with 10 mg/kg or administered 2 mg/kg or 10 mg/kg to ICR mice by tail-intravenous injection. Blood sample of orbital vein was taken at 0.083, 0.25, 0.5, 1, 2, 4, 6, 8 and 24 hours after administration, and collected in anticoagulation tube added with EDTA-K2. The test compounds were extracted from plasma samples and chromatographed on a tandem mass spectrometer. Quantitation was performed using multiple reaction monitoring (MRM). Pharmacokinetic parameters were calculated using WinNonlin 6.1 software with non compartment model.

Structure (SMILES)	inhibition at 0.5 µM [1] [%]	clearance ([2]; iv, 10 mg/kg) [mL/min/kg]	half-life ([2]; iv, 10 mg/kg) [h]	AUC(0-t) ([2]; iv, 10 mg/kg) [ng·h/mL]	AUC(0-inf) ([2]; iv, 10 mg/kg) [ng·h/mL]	Vd ([2]; iv, 10 mg/kg) [L/kg]	Cmax ([2]; po, 10 mg/kg) [ng/mL]	Tmax ([2]; po, 10 mg/kg) [h]	half-life ([2]; po, 10 mg/kg) [h]	AUC(0-t) ([2]; po, 10 mg/kg) [ng·h/mL]	AUC(0-inf) ([2]; po, 10 mg/kg) [ng·h/mL]	bioavailability ([2]; po, 10 mg/kg) [%]	Cmax ([2]; iv, 2 mg/kg) [ng/mL]	Tmax ([2]; iv, 2 mg/kg) [h]	clearance ([2]; iv, 2 mg/kg) [mL/min/kg]	half-life ([2]; iv, 2 mg/kg) [h]	AUC(0-t) ([2]; iv, 2 mg/kg) [ng·h/mL]	AUC(0-inf) ([2]; iv, 2 mg/kg) [ng·h/mL]	Vd ([2]; iv, 2 mg/kg) [L/kg]
CCOC(=O)C1=C(CN2CCOC(CC(=O)O)C2)NC(c2nccs2)=NC1c1ccc(F)cc1Br (stereo not drawn) [Example 74, 2-(4-((6-(2-bromo-4-fluorophenyl)-5-(ethoxycarbonyl)-2-(thiazol-2-yl)-3,6-dihydropyrimidin-4-yl)methyl)morpholin-2-yl)acetic acid]	91.7	15.5	1.02	10600	11200	0.82	7330	0.25	1.18	7890	8160	74.2	–	–	–	–	–	–	–
CCOC(=O)C1=C(CN2CCOC(CCC(=O)O)C2)NC(c2nccs2)=NC1c1ccc(F)cc1Br (stereo not drawn) [Example 129, 3-(4-((6-(2-bromo-4-fluorophenyl)-5-(ethoxycarbonyl)-2-(thiazol-2-yl)-3,6-dihydropyrimidin-4-yl)methyl)morpholin-2-yl)propanoic acid]	92	–	–	–	–	–	8610	0.08	6.62	5330	5350	65.2	3860	0.08	20.3	2.42	1630	1640	0.9
CCOC(=O)C1=C(CN2CCOCC2C(=O)NC)NC(c2nccs2)=NC1c1ccc(F)cc1Br (stereo not drawn) [Example 136, Ethyl 4-(2-bromo-4-fluorophenyl)-6-((3-(methylcarbamoyl)morpholino)methyl)-2-(thiazol-2-yl)-1,4-dihydropyrimidine-5-carboxylate]	95.8	–	–	–	–	–	–	–	–	–	–	–	–	–	–	–	–	–	–
